The text below walks through data of publication PMC12505967, “Inhibition of the assembly of Plasmodium Hsp70-1 and Hsp40 complex blocks DNA replication by destabilizing ribonucleotide reductase subunit-2” (mBio, 2025).

One assay addresses T1, PfHsp70-1 (Plasmodium falciparum, UniProt Q8IB24).
T1 construct: gene PF3D7_0818900; full length, N-terminal His6 tag (pET28a), E. coli Rosetta (DE3), Ni-NTA; tag kept
In kind it is biochemical. The conditions noted are these: basal ATPase without cochaperone; 50 µM ATP, 2 µM protein, 2 mM MgCl2, pH 7.5, 37°C.

For another assay, the target named is T2, PfHsp70-1 + PfYdj1 (Plasmodium falciparum, UniProt Q8IB24).
T2 construct: gene PF3D7_0818900; both full length, N-terminal His6 tag (pET28a), E. coli, Ni-NTA; tags kept; with HSP40, subfamily A
In words: EnzChek phosphate ATPase assay. It counts as biochemical. The conditions noted are these: inhibits PfYdj1-stimulated ATP hydrolysis; 1 and 20 µM compound (21 µM in figure legend); 50 µM ATP, 2 µM each protein, 2 mM MgCl2, pH 7.5, 37°C.

Assay [1] has as its target Recombinant PfHsp70-1 (His6-tagged, purified) (Plasmodium falciparum 3D7) (UniProt Q8IB24). The note with it: scale: µM min^−1 per µM concentration of the enzyme.

As to `Nc1ncnc2c1ncn2[C@@H]1O[C@H](COP(=O)(O)OP(=O)(O)OP(=O)(O)O)[C@@H](O)[C@H]1O` [ATP], the “EnzChek phosphate ATPase assay” value on PfHsp70-1 is reported as “PfHsp70-1 showed a basal level of ATPase activity”.

Turning to `CC1=C(C(=O)OCc2ccccc2)C(c2ccc(-c3ccccc3)cc2)NC(=O)N1CCCCCC(=O)O` (stereo not drawn) [116-9e], at PfHsp70-1 + PfYdj1, the “EnzChek phosphate ATPase assay” value is listed as “observed a reduced stimulation of PfYdj1-mediated ATP hydrolysis of PfHsp70-1 in a dose-dependent manner”.

B1: Recombinant PfSis1 (His6-tagged, purified) (natural protein)
chain: MGKDYYSILGVSRDCTTNDLKKAYRKLAMMWHPDKHNDEKSKKEAEEKFKNIAEAYDVLADEEKRKIYDTYGEEGLKGSIPTGGNTYVYSGVDPSELFSRIFGSDGQFSFTSTFDEDFSPFSTFVNMTSRKSRPSTTTNINTNNYNKPATYEVPLSLSLEELYSGCKKKLKITRKRFMGTKSYEDDNYVTIDVKAGWKDGTKITFYGEGDQLSPMAQPGDLVFKVKTKTHDRFLRDANHLIYKCPVPLDKALTGFQFIVKSLDNRDINVRVDDIVTPKSRKIVAKEGMPSSKYPSMKGDLIVEFDIVFPKSLTSEKKKIIRETLANTF
Consider B1, for which the PfSis1-induced rate of ATP hydrolysis of PfHsp70-1 without and with 1 µM and 20 µM 116-9e (0.37 without, 0.322 at 1 µM, 0.087 at 20 µM) in assay [1] came to 0.37.
